Reference: ChEMBL document CHEMBL4007425, “Drug Repurposing of Histone Deacetylase Inhibitors That Alleviate Neutrophilic Inflammation in Acute Lung Injury and Idiopathic Pulmonary Fibrosis via Inhibiting Leukotriene A4 Hydrolase and Blocking LTB4 Biosynthesis” (J Med Chem, 2017)
The source made the active and inactive calls. The rule behind the calls is not given here.

Key:
[1] = target: T1, Leukotriene A-4 hydrolase (Homo sapiens, UniProt P09960); assay: Inhibition of recombinant human LTA4H aminopeptidase activity expressed in Escherichia coli BL21 (DE3) pLysS assessed as formation of p-NA from Ala-p-NA preincubated for 10 mins followed by substrate addition measured after 10 mins; format: ADME
T1 sequence (P09960 whole entry): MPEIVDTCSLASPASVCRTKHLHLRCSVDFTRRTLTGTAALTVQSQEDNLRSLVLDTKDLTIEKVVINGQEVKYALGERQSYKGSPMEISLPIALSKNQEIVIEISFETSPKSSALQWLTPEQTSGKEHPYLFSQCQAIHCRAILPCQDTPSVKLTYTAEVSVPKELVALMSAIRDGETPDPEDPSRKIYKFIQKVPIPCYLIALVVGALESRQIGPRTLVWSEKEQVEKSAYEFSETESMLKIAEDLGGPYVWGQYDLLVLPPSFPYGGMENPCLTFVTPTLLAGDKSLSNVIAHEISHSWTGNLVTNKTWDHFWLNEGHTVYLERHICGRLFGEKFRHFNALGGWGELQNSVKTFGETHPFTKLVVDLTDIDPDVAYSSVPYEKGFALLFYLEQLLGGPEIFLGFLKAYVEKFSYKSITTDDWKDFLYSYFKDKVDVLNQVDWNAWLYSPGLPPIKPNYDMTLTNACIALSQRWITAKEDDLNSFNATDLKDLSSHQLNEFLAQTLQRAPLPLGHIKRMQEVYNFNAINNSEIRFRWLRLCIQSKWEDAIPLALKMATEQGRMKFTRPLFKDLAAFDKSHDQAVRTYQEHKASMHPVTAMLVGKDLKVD

[2] = target: T1, Leukotriene A-4 hydrolase; assay: Inhibition of recombinant human LTA4H Epoxide Hydrolase expressed in Escherichia coli BL21 (DE3) pLysS preincubated for 10 mins followed by addition of LTA4 as substrate measured after 15 mins by reverse-phase HPLC analysis
[3] = target: T2, Leukotriene A-4 hydrolase (LTA4H) aminopeptidase activity (Homo sapiens, UniProt P09960); assay: Inhibition of recombinant human LTA4H aminopeptidase activity expressed in Escherichia coli BL21 (DE3) pLysS assessed as formation of p-NA from Ala-p-NA at 10 uM preincubated for 10 mins followed by substrate addition measured after 10 mins
T2 sequence (P09960 whole entry): T1 sequence (P09960 whole entry)

[4] = target: T3, Leukotriene A-4 hydrolase (Homo sapiens) (UniProt P09960)
T3 sequence (whole entry): T1 sequence (P09960 whole entry)
Description: Binding affinity to recombinant human LTA4H hydrolase assessed as change in melting temperature at 50 uM by SYPRO orange dye-based thermofluor assay

[5] = target: T3, Leukotriene A-4 hydrolase (Homo sapiens); settings: at 10 µM
Description: Inhibition of recombinant human LTA4H Epoxide Hydrolase expressed in Escherichia coli BL21 (DE3) pLysS at 10 uM preincubated for 10 mins followed by addition of LTA4 as substrate measured after 15 mins by reverse-phase HPLC analysis

[6] = test system: Mus musculus; assay: Anti-inflammatory activity in LPS-induced C57BL/6 mouse model of acute lung injury assessed as reduction in pathological changes at 25 mg/kg, ip and co-treated with ((2S,3R)-3-amino-2-hydroxy-4-phenylbutanamido)-4-methylpentanoic acid pretreated for 1 hr followed LPS challenge measured after 24 hrs by hematoxylin and eosin staining based microscopy; format: functional, organism-based
[7] = species on record: Mus musculus; settings: C57BL/6, at 25 mg/kg
Description: Inhibition of LTB4 biosynthesis in LPS-induced C57BL/6 mouse model of acute lung injury BLAF at 25 mg/kg, ip by ELISA

[8] = test system: Mus musculus; assay: Anti-inflammatory activity in BLM-induced C57BL/6 mouse model of acute lung neutrophilic inflammation assessed as reduction in number of neutrophils in BALF at 30 mg/kg, ip qd for 7 days post BLM challenge measured on day 7; format: functional, organism-based
[9] = target: T3, Leukotriene A-4 hydrolase (Homo sapiens); settings: 10 uM

IC50 [1] [µM]	IC50 [2] [µM]	inhibition at 10 min, 10 µM [3] [%]	ΔTm [4] [°C]	inhibition [5] [%]	inhibition at 10 min, 10 µM ([3]; probe Ala-p-NA) [%]	SMILES	Activity [6]	inhibition [7]	Activity [8]	ΔTm [9] [°C]
> 10	> 10	> 50	0.3	> 50		C#Cc1cccc(Nc2ncnc3cc(OC)c(OCCCCCCC(=O)NO)cc23)c1 [CUDC-101]				
						CC(C)C[C@H](NC(=O)[C@@H](O)[C@H](N)Cc1ccccc1)C(=O)O	Active	Active		
> 10	> 10		0.17	> 50	> 50	CC(/C=C/C(=O)NO)=C\[C@@H](C)C(=O)c1ccc(N(C)C)cc1 [TRICHOSTATIN]				
4.4	> 10	> 50	-0.68	> 50		O=C(CCCCCN1C(=O)c2cccc3cccc(c23)C1=O)NO				
> 10	> 10		0.44	> 50	> 50	CN(C)Cc1ccc(S(=O)(=O)n2ccc(/C=C/C(=O)NO)c2)cc1 [RESMINOSTAT]				
> 10	> 10		-0.33	> 50	> 50	Nc1ccccc1NC(=O)c1ccc(CNc2nccc(-c3cccnc3)n2)cc1 [MOCETINOSTAT]				
> 10	> 10		0.34	> 50	> 50	O=C(CCCCCCC(=O)Nc1ccc([C@H]2O[C@@H](CSc3nc(-c4ccccc4)c(-c4ccccc4)o3)C[C@@H](c3ccc(CO)cc3)O2)cc1)NO [TUBACIN]				
> 10	> 10		0.24	> 50	> 50	CN(C)Cc1c(C(=O)NCCOc2ccc(C(=O)NO)cc2)oc2ccccc12 [ABEXINOSTAT]				
						COC(=O)c1ccc2c(c1)NC(=O)/C2=C(\Nc1ccc(N(C)C(=O)CN2CCN(C)CC2)cc1)c1ccccc1			Active	
> 10	> 10		0.39	> 50	> 50	Nc1ccccc1NC(=O)c1ccc(CNC(=O)OCc2cccnc2)cc1 [ENTINOSTAT]				
> 10	> 10	> 50	0.31	> 50		CCCCc1nc2cc(/C=C/C(=O)NO)ccc2n1CCN(CC)CC [PRACINOSTAT]				
> 10	> 10		0.55	> 50	> 50	O=C(CCCCCCNC(=O)c1cnc(N(c2ccccc2)c2ccccc2)nc1)NO [RICOLINOSTAT]				
> 10	> 10		0.11	> 50	> 50	O=C(/C=C/c1cccc(S(=O)(=O)Nc2ccccc2)c1)NO [BELINOSTAT]				
> 10	> 10		0.52	> 50	> 50	Cn1cc(CNCC2CCN(c3ncc(C(=O)NO)cn3)CC2)c2ccccc21 [QUISINOSTAT]				
						CN(CCCOc1ccc(Cc2ccccc2)cc1)CCC(=O)O				2.95
> 10	> 10		0.19	> 50	> 50	CCN(CC)Cc1ccc2cc(COC(=O)Nc3ccc(C(=O)NO)cc3)ccc2c1 [GIVINOSTAT]				
> 10	> 10		0.12	> 50	> 50	Cc1[nH]c2ccccc2c1CCNCc1ccc(/C=C/C(=O)NO)cc1 [PANOBINOSTAT]				

SMILES	IC50 [1] [µM]	IC50 [2] [µM]	inhibition at 10 min, 10 µM [3] [%]	ΔTm [4] [°C]	inhibition [5] [%]	inhibition at 10 min, 10 µM ([3]; probe Ala-p-NA) [%]	Activity [6]	inhibition [7]	Activity [8]	ΔTm [9] [°C]
CCCC(CCC)C(=O)O [VALPROATE SODIUM]	> 10	> 10		0.36	> 50	> 50				
